In this experiment the target is T1, Human FXRα Ligand Binding Domain (Homo sapiens, UniProt Q96RI1).
T1 construct: polyhistidine (pRSET-A vector) (N); made in house; host or cells: E. coli BL21 (DE3), pRSET-A vector
T1 sequence (Q96RI1 237-472 isoform Q96RI1-2): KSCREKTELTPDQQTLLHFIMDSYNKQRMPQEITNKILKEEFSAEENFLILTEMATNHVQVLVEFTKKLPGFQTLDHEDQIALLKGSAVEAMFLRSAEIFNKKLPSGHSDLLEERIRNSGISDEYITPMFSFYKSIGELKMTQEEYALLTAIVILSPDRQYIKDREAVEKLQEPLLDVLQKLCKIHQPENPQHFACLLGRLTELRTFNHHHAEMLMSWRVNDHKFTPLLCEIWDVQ
Briefly: FXR Cofactor Binding Assay (FXR LBD / SRC-1 peptide, time resolved fluorescence). The settings on record: FXRα LBD with biotinylated SRC-1 (LCD2, 676-700) peptide, read-out: Activity (pEC50) (converted). From the text:
Determination of a ligand mediated cofactor peptide interaction to quantify ligand binding to the nuclear receptor Farnesoid X Receptor (FXR). The method measures the ability of putative ligands to modulate the interaction between the purified bacterial expressed FXRα ligand binding domain (LBD) and a synthetic biotinylated peptide based on residues 676-700 of steroid receptor coactivator-1 (SRC-1) (LXXLL-containing domain-2 where L is the amino acid leucine and X indicates any other amino acid (LCD2), 676-700). The sequence of the SRC-1 peptide used is as published in Iannone, M. A., et al., 2001 Cytometry 44:326-337 where the N-terminus was biotinylated (B) and the C-terminus was amidated. Detection of the associated complex was measured by time resolved fluorescence (TRF). The purified LBD of FXR was labeled with biotin then mixed with stoichiometric amounts of allophycocyanin (APC) labeled streptavidin (Molecular Probes). The biotinylated peptide was then mixed with a ½ stoichiometric amount of europium labeled streptavidin (Wallac Inc). Each was then blocked with a 5 fold excess of biotin and allowed to equilibrate for 15 min. Equimolar amounts of receptor and peptide were mixed together and were allowed to equilibrate for at least 30 min prior to the addition to either a variable or constant concentrations of the sample for which the affinity is to be determined. After equilibration, the time-resolved fluorescent signal was quantitated using a fluorescent plate reader. The affinity of the test compound was estimated from a plot of fluorescence versus concentration of test compound added.
A basal level of FXR: peptide formation is observed in the absence of added ligand. Ligands that promote the complex formation induce a concentration-dependent increase in time-resolved fluorescent signal. Compounds which bind equally well to both monomeric FXR and to the FXR: peptide complex would be expected to give no change in signal, whereas ligands which bind preferentially to the monomeric receptor would be expected to induce a concentration-dependent decrease in the observed signal.
Human FXRα Ligand Binding Domain (FXRα LBD) was expressed in E. coli strain BL21 (DE3) as an amino-terminal polyhistidine tagged fusion protein. Expression was under the control of an isopropyl-13-D-thiogalactopyranoside (IPTG) inducible T7 promoter. DNA encoding this recombinant protein is subcloned into the pRSET-A expression vector (Invitrogen). The coding sequence of Human FXRα LBD was derived from Genbank accession number U 68233 (amino acids 237 to 472).
Routinely, 30-40 g cell paste (equivalent to 2-3 liters of the fermentation batch) was resuspended in 200-250 mL Tris buffered saline (TBS), pH 7.2 (25 mM Tris-hydroxymethylamino methane (Tris), 150 mM sodium chloride). Cells were lysed by passing 3 times through a French Press and cell debris was removed by centrifugation (30 minutes, 20,000×gravity, 4° C.). The cleared supernatant was filtered through course pre-filters, and TBS, pH 7.2, 500 mM imidazole was added to obtain a final imidazole concentration of 50 mM. This lysate was loaded onto a column (6×8 cm) packed with Sepharose [Ni^|| charged]Chelation resin (Pharmacia) and pre-equilibrated with TBS pH 7.2/50 mM imidazole. After washing to baseline absorbance with equilibration buffer, the column was washed with one column volume of TBS pH 7.2 containing 90 mM imidazole. FXRα LBD was eluted directly with 365 mM imidazole. Column fractions were pooled and dialyzed against TBS, pH 7.2, containing 0.5 mM EDTA and 5 mM DTT. The dialyzed protein sample was concentrated using Centri-prep 10 K (Amicon) and subjected to size exclusion, using a column (3×90 cm) packed with Sepharose S-75 resin (Pharmacia) pre-equilibrated with TBS, pH 7.2, containing 0.5 mM ethylene diamine tetraacetic acid (EDTA) and 5 mM dithiothreitol (DTT). […]
As for `CC(C)c1onc(COC2CCCC2)c1COc1ccc(-c2ccc3nc(C(=O)O)ccc3c2)cc1` [Example 27, 6-[4-({[3-[(Cyclopentyloxy)methyl]-5-(1-methylethyl)-4-isoxazolyl]methyl}oxy)phenyl]-2-quinolinecarboxylic acid], the EC50 is 1020 to 10000 nM.
The value for `O=C(O)c1cc2ccc(-c3ccc(OCc4c(-c5c(Cl)cncc5Cl)noc4C4CCC4)cc3)cc2cn1` [Example 9, 7-[4-({[5-Cyclobutyl-3-(3,5-dichloro-4-pyridinyl)-4-isoxazolyl]methyl}oxy)phenyl]-3-isoquinolinecarboxylic acid] was 102 to 1000 nM; that for `CC(C)c1onc(-c2c(Cl)cccc2Cl)c1CCCOc1ccc(-c2ccc3nc(C(=O)O)ccc3c2)cc1` [Example 15, 6-[4-({3-[3-(2,6-Dichlorophenyl)-5-(1-methylethyl)-4-isoxazolyl]propyl}oxy)phenyl]-2-quinolinecarboxylic acid] was 102 to 1000 nM; that for `Cc1cccc(C)c1OCc1noc(C(C)C)c1COc1ccc(-c2ccc3cc(C(=O)O)ncc3c2)cc1` [Example 16, 7-[4-({[3-{[(2,6-Dimethylphenyl)oxy]methyl}-5-(1-methylethyl)-4-isoxazolyl]methyl}oxy)phenyl]-3-isoquinolinecarboxylic acid] was 102 to 1000 nM.
The result for `CC(C)c1onc(-c2c(Cl)ccnc2Cl)c1COc1ccc(-c2ccc3nc(C(=O)O)ccc3c2)cc1` [Example 28, 6-[4-({[3-(2,4-Dichloro-3-pyridinyl)-5-(1-methylethyl)-4-isoxazolyl]methyl}oxy)phenyl]-2-quinolinecarboxylic acid] reads 102 to 1000 nM.
For `CC(C)c1onc(CNc2c(Cl)cccc2Cl)c1COc1ccc(-c2ccc3nc(C(=O)O)ccc3c2)cc1` [Example 21, 6-[4-({[3-{[(2,6-Dichlorophenyl)amino]methyl}-5-(1-methylethyl)-4-isoxazolyl]methyl}oxy)phenyl]-2-quinolinecarboxylic acid], the EC50 was 102 to 1000 nM.
The value for `Cc1cccc(C)c1OCc1noc(C2CCC2)c1COc1ccc(-c2ccc3cc(C(=O)O)ncc3c2)cc1` [Example 17, 7-(4-{[(5-Cyclobutyl-3-{[(2,6-dimethylphenyl)oxy]methyl}-4-isoxazolyl)methyl]oxy}phenyl)-3-isoquinolinecarboxylic acid] was 102 to 1000 nM; that for `CC(C)c1onc(-c2c(Cl)cccc2Cl)c1COc1ccc(-c2cc3ccc(C(=O)O)nc3cc2F)cc1` [Example 30, 6-[4-({[3-(2,6-Dichlorophenyl)-5-(1-methylethyl)-4-isoxazolyl]methyl}oxy)phenyl]-7-fluoro-2-quinolinecarboxylic acid] was 102 to 1000 nM; that for `CC(C)c1onc(COc2c(Cl)cccc2Cl)c1COc1ccc(-c2ccc3nc(C(=O)O)ccc3c2)cc1` [Example 20, 6-[4-({[3-{[(2,6-Dichlorophenyl)oxy]methyl}-5-(1-methylethyl)-4-isoxazolyl]methyl}oxy)phenyl]-2-quinolinecarboxylic acid] was 102 to 1000 nM.
The result for `CC(C)c1onc(COc2c(F)cc(F)cc2F)c1COc1ccc(-c2ccc3nc(C(=O)O)ccc3c2)cc1` [Example 19, 6-(4-{[(5-(1-Methylethyl)-3-{[(2,4,6-trifluorophenyl)oxy]methyl}-4-isoxazolyl)methyl]oxy}phenyl)-2-quinolinecarboxylic acid] reads 102 to 1000 nM; that for `Cc1ccnc(C)c1-c1noc(C(C)C)c1COc1ccc(-c2ccc3nc(C(=O)O)ccc3c2)cc1` [Example 29, 6-[4-({[3-(2,4-Dimethyl-3-pyridinyl)-5-(1-methylethyl)-4-isoxazolyl]methyl}oxy)phenyl]-2-quinolinecarboxylic acid], 102 to 1000 nM; that for `O=C(O)c1ccc2cc(-c3ccc(OCc4c(-c5c(Cl)cccc5Cl)noc4C4CCCC4)cc3)ccc2n1` [Example 6, 6-[4-({[5-Cyclopentyl-3-(2,6-dichlorophenyl)-4-isoxazolyl]methyl}oxy)phenyl]-2-quinolinecarboxylic acid], 102 to 1000 nM.
The value for `O=C(O)c1ccc2cc(-c3ccc(OCc4c(-c5c(Cl)cncc5Cl)noc4C4CC4)cc3)ccc2n1` [Example 12, 6-[4-({[5-Cyclopropyl-3-(3,5-dichloro-4-pyridinyl)-4-isoxazolyl]methyl}oxy)phenyl]-2-quinolinecarboxylic acid] was 102 to 1000 nM; that for `Cc1cc(OCc2c(-c3c(Cl)cccc3Cl)noc2C(C)C)ccc1-c1ccc2nc(C(=O)O)ccc2c1` [Example 33, 6-[4-({[3-(2,6-Dichlorophenyl)-5-(1-methylethyl)-4-isoxazolyl]methyl}oxy)-2-methylphenyl]-2-quinolinecarboxylic acid] was 102 to 1000 nM.
For the compound `CC(C)c1onc(-c2c(Cl)cncc2Cl)c1COc1ccc(-c2ccc3nc(C(=O)O)ccc3c2)cc1` [Example 25, 6-[4-({[3-(3,5-Dichloro-4-pyridinyl)-5-(1-methylethyl)-4-isoxazolyl]methyl}oxy)phenyl]-2-quinolinecarboxylic acid], the EC50 is 102 to 1000 nM.
The result for `Cc1cc(C(=O)O)nc2ccc(-c3ccc(OCc4c(-c5c(Cl)cccc5Cl)noc4C(C)C)cc3)cc12` [Example 34, 6-[4-({[3-(2,6-Dichlorophenyl)-5-(1-methylethyl)-4-isoxazolyl]methyl}oxy)phenyl]-4-methyl-2-quinolinecarboxylic acid] reads less than 100 nM.
The result for `CC(C)c1onc(-c2c(Cl)cccc2Cl)c1COc1ccc(-c2ccc3nc(C(=O)O)cnc3c2)cc1` [Example 39, 6-[4-({[3-(2,6-Dichlorophenyl)-5-(1-methylethyl)-4-isoxazolyl]methyl}oxy)phenyl]-2-quinoxalinecarboxylic acid] reads 102 to 1000 nM; that for `CC[C@@H](C)c1onc(-c2c(Cl)cccc2Cl)c1COc1ccc(-c2ccc3nc(C(=O)O)ccc3c2)cc1` [Example 14, 6-{4-[({3-(2,6-Dichlorophenyl)-5-[(1R)-1-methylpropyl]-4-isoxazolyl}methyl)oxy]phenyl}-2-quinolinecarboxylic acid], 102 to 1000 nM.
